Experimental data: paper PMC4492822 (EMBO Molecular Medicine, 2015)
pIC50: −log10 of the molar value.

Assays:
[1] = test system: H3255; experiment: MTS viability assay, 72 h, line with low DDX3 expression; format: cell-based
Method: Proliferation was determined by counting cancer cells over time. Cells were seeded at 7.5 × 10^4 cells/well and counted daily with a TC10 automated cell counter (Bio-Rad, Hercules, CA, USA) at least three times. Viability of cancer cells was determined by MTS assay (CellTiter 96® AQueous One Solution, Promega, Madison, WI, USA) as described by the manufacturer. Briefly, 800–2,000 cells were allowed to attach overnight in a 96-well plate, treated with different concentrations of RK-33 and kept for 72 h. MTS reagent was kept for 2 h. Each experiment was repeated a minimum of three independent times.

[2] = test system: A549 human lung cancer cells; experiment: Orthotopic A549 lung cancer model with radiation; format: in vivo, athymic NCr-nu/nu mice; conditions: i.p. RK-33 with radiation, schedule as Fig6C
Method: Athymic NCr-nu/nu female mice 4–5 weeks old were purchased from NCI Frederick. A total of 1 × 10^6 A549 cells were injected in the tail vein of ten mice. Treatment (five animals per group) was started 4 weeks after inoculation of tumor cells. Since tumor volumes could not be determined by micro-CT, tumor burden was established at necropsy by histopathology, 8 weeks after inoculation of tumor cells. All five lung lobes were paraffin-embedded and mid-lung sections were stained with H&E. Slides were digitalized; lung and tumor surface area was calculated with ImageScope (Aperio Technologies, Vista, CA, USA), as tumor burden = tumor surface/lung surface.
Cells were irradiated at room temperature with 0.5 Gy/min to the desired dose using a Gammacell 40 ^137Cs irradiator. For in vivo experiments, mice were treated using the Small Animal Radiation Research Platform (Wong et al, [2008]). The tumors were irradiated with a circular beam of 1 cm diameter.

[3] = test system: A549 cells; experiment: Cell cycle analysis by flow cytometry; format: cell-based, human; conditions: 0, 2, 4, and 6 μM, dose-dependent
Method: A549 and H1299 cells were plated at 1 × 10^5 cells per well of a 6-well plate. Cell cycle was carried out as previously described (Vesuna et al, [2012]). Briefly, cells were trypsinized 24 h after plating and fixed in 70% ethanol overnight at −20°C. Fixed cells were washed with PBS and resuspended in DNA-staining solution (5 μg/ml propidium iodide, 0.5 mg/ml RNase A) for 1 h at room temperature. Cell cycle acquisition was performed on a FACScan I or FACSCalibur instrument (BD Biosciences, San Jose, CA, USA). Independent experiments were repeated three times. Data were analyzed using FlowJo software (Tree Star Inc., Ashland, OR, USA).

[4] = test system: H1299-DR-GFP cells; experiment: Homologous recombination reporter assay; format: cell-based
Method: NHEJ was assessed by the functional reporter system H1299-EJ, provided by E Dikomey. […] When these sites are incised by I-SceI, the artificial start codon is removed creating a DSB. Repair of this DSB by NHEJ restores GFP expression, so that cells capable for NHEJ can be identified by their GFP fluorescence intensity (Kriegs et al, [2010]). H1299.EJ cells were plated in a 6-well plate (1 × 10^5 cell/well) and treated with 4–6 μM RK-33. The following day, cells were transfected (in duplicates) with 1–2 μg of pSceI or pEGFP construct using TransIT-LT1 (Mirus, Madison, WI, USA) in serum-free media (Opti-MEM, Invitrogen, Carlsbad, CA, USA). Media was replaced after 4–6 h with complete media. Subsequently, cells were harvested by trypsinization, washed in PBS, and resuspended in 0.5 ml PBS. NHEJ activity was measured on a FACScan I instrument and analyzed on FlowJo software. Recombination frequency was calculated as ((% pSceI − % negative control) / % pEGFP). H1299-DR-GFP cells, provided by RG Bristow, were used to measure homologous recombination similarly as described above (Chan et al, [2008]).

[5] = test system: lung cancer cell lines (A549, H1299, H460, H23, and H196); experiment: Combination experiments with chemotherapy; format: cell-based

In the case of “diimidazo[4,5-d:4′,5′-f]-[1,3]diazepine [RK-33]”, the pIC50 [1] was less than 4.60, the “enhancement of radiation-induced tumor regression (tumor burden)” value [2] was 2.6 fold and the cell cycle effect [3] was “G1 arrest”. For the same substance, the HR activity [4] was “no changes in HR activity”, the “synergy of RK-33 + cisplatin” value [5] was “did not observe significant synergy” and the “synergy of RK-33 + paclitaxel” value [5] was “did not observe significant synergy”.
